Patent publication US8163909B2, “Substituted hydroxyethyl amine compounds as beta-secretase modulators and methods of use” (Amgen Inc., priority 2007, dated 2012)
pIC50: −log10 of the molar value. Like-named read-outs stand apart in the source and are kept apart here.

Legend:
[1] = target: Beta Secretase enzyme (BACE) (Homo sapiens, UniProt P56817); assay: In vitro enzymatic BACE FRET (fluorescence resonance energy transfer) assay; format: biochemical; conditions: for IC50: IC50's in uM;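 as to all read-outs here: fluorescence read after 1 h with 50 nM quenched peptide substrate spanning the BACE cleavage site, in pH 4.2 acetate buffer containing 10% DMSO and nonionic detergent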
Beta Secretase enzyme (BACE), sequence (P56817 46-501): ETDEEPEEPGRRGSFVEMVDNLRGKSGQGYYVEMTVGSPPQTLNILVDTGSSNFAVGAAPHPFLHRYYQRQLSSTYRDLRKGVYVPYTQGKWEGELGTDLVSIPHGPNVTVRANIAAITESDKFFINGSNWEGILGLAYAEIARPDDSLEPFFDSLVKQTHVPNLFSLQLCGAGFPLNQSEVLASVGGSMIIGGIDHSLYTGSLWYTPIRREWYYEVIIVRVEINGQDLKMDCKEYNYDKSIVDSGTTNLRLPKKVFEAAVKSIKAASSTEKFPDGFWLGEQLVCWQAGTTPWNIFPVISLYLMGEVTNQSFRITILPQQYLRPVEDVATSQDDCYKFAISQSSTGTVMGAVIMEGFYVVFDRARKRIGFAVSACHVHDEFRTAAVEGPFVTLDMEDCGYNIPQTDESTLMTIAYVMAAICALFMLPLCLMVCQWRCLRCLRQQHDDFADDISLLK

[2] = system: Aβ40 in conditioned medium of cells stably expressing Amyloid Precursor Protein (APP); assay: In vitro BACE cell-based assay (Aβ40 in conditioned medium, sandwich ELISA); conditions: Homo sapiens; for IC50: IC50's in uM;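 as to all read-outs here: compounds added as a dilution series, secreted peptide quantified by europium time-resolved fluorescence readout, potency fitted from percent of control versus compound concentration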
CYP3A4 (CYP3A) = CYP3A4 (CYP3A) (Homo sapiens, UniProt P08684); assay: in vitro; conditions: microsomes, pH 7.4;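 also: inhibition of CYP3A-mediated 1-hydroxymidazolam formation after 10 min incubation with NADPH, quantified by HPLC MS relative to metabolite produced without test compound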
CYP3A4 (CYP3A), sequence (P08684 2-503): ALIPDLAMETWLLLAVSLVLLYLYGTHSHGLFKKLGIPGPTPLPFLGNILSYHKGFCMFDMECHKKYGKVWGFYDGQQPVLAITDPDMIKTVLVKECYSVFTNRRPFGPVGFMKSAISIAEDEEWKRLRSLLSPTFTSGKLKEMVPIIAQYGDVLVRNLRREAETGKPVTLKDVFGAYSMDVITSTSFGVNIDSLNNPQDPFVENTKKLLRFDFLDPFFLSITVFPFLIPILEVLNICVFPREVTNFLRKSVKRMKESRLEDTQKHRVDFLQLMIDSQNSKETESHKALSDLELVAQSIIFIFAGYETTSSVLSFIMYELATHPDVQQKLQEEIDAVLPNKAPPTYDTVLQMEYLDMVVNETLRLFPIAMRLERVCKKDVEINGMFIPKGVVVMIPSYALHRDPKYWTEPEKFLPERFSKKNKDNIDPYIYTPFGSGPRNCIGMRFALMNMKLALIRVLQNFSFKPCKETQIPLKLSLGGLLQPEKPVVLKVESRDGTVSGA

[3] = Microsomal stability assay, rat liver microsomes;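 also: rat liver microsomes (0.25 mg/mL) with about 1 µM compound plus 1 mM NADPH, pH 7.4, 37 °C for 30 min, parent left measured by LC-MS/MS against 0 min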
[4] = Microsomal stability assay, human liver microsomes;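 also: pooled human liver microsomes at 0.25 mg/mL with 1 µM compound and NADPH at 37 °C, pH 7.4, for 30 min, unchanged parent quantified by LC-MS/MS against the 0 min sample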
CYP2D6 = CYP2D6 (Homo sapiens, UniProt P10635); assay: CYP2D6 inhibition assay (bufuralol, pooled human liver microsomes); conditions: for IC50: 2D6 IC50 (uM)
CYP2D6, sequence (P10635 whole entry): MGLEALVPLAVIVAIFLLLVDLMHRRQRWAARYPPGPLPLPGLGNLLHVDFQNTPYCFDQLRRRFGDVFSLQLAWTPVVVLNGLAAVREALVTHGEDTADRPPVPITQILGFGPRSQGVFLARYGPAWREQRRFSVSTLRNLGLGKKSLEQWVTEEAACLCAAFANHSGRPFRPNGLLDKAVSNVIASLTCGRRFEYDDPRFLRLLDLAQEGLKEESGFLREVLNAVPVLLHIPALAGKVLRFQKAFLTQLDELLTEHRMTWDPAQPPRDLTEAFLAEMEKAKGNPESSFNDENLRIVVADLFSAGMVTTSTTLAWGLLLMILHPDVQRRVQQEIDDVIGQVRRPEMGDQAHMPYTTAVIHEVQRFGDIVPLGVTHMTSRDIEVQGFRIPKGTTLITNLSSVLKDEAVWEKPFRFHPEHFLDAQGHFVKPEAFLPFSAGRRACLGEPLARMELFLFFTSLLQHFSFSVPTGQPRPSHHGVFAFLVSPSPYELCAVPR

[5] = BACE enzyme assay, read-out: BACE1 FRET assay
[6] = HEK293, HEK cells, read-out: HEK cell assay
[7] = BACE enzyme assay IC50, read-out: BACE1 FRET assay
[8] = HEK293, HEK cell-based assay IC50, read-out: HEK cell assay
[9] = Table 2, read-out: BACE1 FRET assay
[10] = HEK293, Table 2, HEK cells, read-out: HEK cell assay
[11] = 2D6 IC50, CYP enzyme inhibition
[12] = HEK293, HEK cell-based assay, read-out: HEK cell assay
[13] = read-out: BACE1 FRET assay (IC50)
[14] = HEK293, HEK cells, read-out: HEK cell assay (IC50)

Row | Structure (SMILES) | pIC50 (CYP3A4 (CYP3A)) | RLM ([3]; rat liver microsomal data) | HLM ([4]; human liver microsomal data) | IC50 (CYP2D6; CYP enzyme inhibition) | RLM ([3]; rat liver microsomes) | HLM ([4]; human liver microsomes) | further results
1 | CC(C)(C)Cc1cnc2c(c1)[C@@H](NC[C@@H](O)[C@H](Cc1ccc(F)cc1)NC=O)CC1(CCC1)O2 [compound 540] | 5.92 | 347 µL/min/mg | 264 µL/min/mg | 2.3 µM |  |  | pIC50 [1, 5]: 7.85; pIC50 [2, 6]: 7.13
2 | CC(=O)N[C@@H](Cc1ccc2c(c1)OCO2)[C@H](O)CN[C@H]1CC(C)(C)Oc2ncc(CC(C)(C)C)cc21 [compound 679] | 6.70 |  |  |  | 138 µL/min/mg | 24 µL/min/mg | pIC50 [1, 7]: 7.72; pIC50 [2, 8]: 7.92; IC50 (CYP2D6; CYP2D6 inhibition): 5.7 µM
3 | CC(=O)CC(=O)N[C@@H](Cc1cccc(F)c1)[C@H](O)CN[C@H]1CC2(CCC2)Oc2ncc(CC(C)(C)C)cc21 [compound 466] | 5.92 | 165 µL/min/mg | 296 µL/min/mg |  |  |  | pIC50 [1, 9]: 8.40; pIC50 [2, 10]: 8.10; pIC50 (CYP2D6; [11]): 5.05
4 | CO[C@H](C)C(=O)N[C@@H](Cc1cc(F)cc(F)c1)[C@H](O)CN[C@H]1CC2(CCC2)Oc2c(-c3cnc[nH]3)cc(CC(C)C)cc21 [compound 476] | 6.22 | 408 µL/min/mg | 329 µL/min/mg |  |  |  | pIC50 [1, 9]: 7.55; pIC50 [2, 10]: 8.30; pIC50 (CYP2D6; [11]): 4.91
5 | Cc1nc(CN2CCO[C@@H](C(=O)N[C@@H](Cc3ccc(F)cc3)[C@H](O)CN[C@H]3CC4(CCC4)Oc4ncc(CC(C)(C)C)cc43)C2)cs1 [compound 755] | 6.52 | 191 µL/min/mg | 522 µL/min/mg | 3.3 µM |  |  | IC50 [1, 5]: 0.012 µM; IC50 [2, 12]: 0.007 µM
6 | COC(OC)C(=O)N[C@@H](Cc1ccc2c(c1)OCO2)[C@H](O)CN[C@H]1CC2(CCC2)Oc2ncc(CC(C)C)cc21 [compound 754, N-((1S,2R)-1-(1,3-benzodioxol-5-ylmethyl)-2-hydroxy-3-(((4′S)-6′-(2-methylpropyl)-3′,4′-dihydrospiro[cyclobutane-1,2′-pyrano[2,3-b]pyridin]-4′-yl)amino)propyl)-2,2-dimethoxyacetamide] | 7.00 |  |  |  | 86 µL/min/mg | 29 µL/min/mg | pIC50 [1, 7]: 7.43; pIC50 [2, 8]: 7.27; IC50 (CYP2D6; CYP2D6 inhibition): 3.5 µM
7 | CC(C)(C)Cc1cnc2c(c1)[C@@H](NC[C@@H](O)[C@H](Cc1cc(F)cc(-c3nccs3)c1)NC(=O)C1(C)CC1)CC1(CCC1)O2 [compound 876] | 6.70 | 91 µL/min/mg | 64 µL/min/mg |  |  |  | IC50 [1, 5]: 0.036 µM; IC50 ([2]; HEK293, cell-based assay, HEK cells, read-out: HEK cell assay): 0.132 µM; pIC50 (CYP2D6; [11]): 6.52
8 | CC(=O)N[C@@H](Cc1ccc(F)cc1)[C@H](O)CN[C@H]1CC2(CCC2)Oc2c1cc(CC(C)(C)C)nc2Nc1ccccc1 [compound 610] | ≤ 4.57 |  |  |  | 213 µL/min/mg | 102 µL/min/mg | pIC50 [1, 13]: 6.70; pIC50 [2, 14]: < 5.00; pIC50 (CYP2D6; 2D6 IC50, CYP2D6 inhibition): ≤ 4.57
9 | CC(=O)N[C@@H](Cc1cc(F)cc(F)c1)[C@H](O)CN[C@H]1CC2(CCC2)Oc2c1cc(CC(C)(C)C)nc2-c1cscn1 [compound 510] | 5.96 | 358 µL/min/mg | 380 µL/min/mg | 10.3 µM |  |  | pIC50 [1, 5]: 8.10; pIC50 [2, 6]: 7.77
10 | CC(=O)N[C@@H](Cc1cc2c(c(-c3ccncc3)c1)OCO2)[C@H](O)CN[C@H]1CC2(CCC2)Oc2ncc(CC(C)(C)C)cc21 [compound 645] | 7.00 |  |  |  | 62 µL/min/mg | 451 µL/min/mg | pIC50 [1, 13]: 6.36; pIC50 [2, 14]: 6.39; pIC50 (CYP2D6; 2D6 IC50, CYP2D6 inhibition): 6.52
11 | COCC(=O)N[C@@H](Cc1cccc(F)c1)[C@H](O)CN[C@H]1CC2(CCC2)Oc2c1cc([C@@H](O)C(C)(C)C)cc2-n1ccnc1 [compound 593] | 7.00 |  |  |  | 29 µL/min/mg | 14 µL/min/mg | pIC50 [1, 13]: 5.80; pIC50 [2, 14]: 6.51; pIC50 (CYP2D6; 2D6 IC50, CYP2D6 inhibition): 6.00
12 | CO[C@H](C)C(=O)N[C@@H](Cc1ccc2c(c1)OCO2)[C@H](O)CN[C@@H]1c2cc(CC(C)(C)C)cnc2OC2(CCC2)[C@@H]1F [compound 554] | 6.70 | 173 µL/min/mg | 63 µL/min/mg | 6.5 µM |  |  | pIC50 [1, 5]: 7.24; pIC50 [2, 6]: 5.99
13 | CC(=O)N[C@@H](Cc1ccc(-c2cncs2)cc1)[C@H](O)CN[C@H]1CC2(CCC2)Oc2ncc(CC(C)(C)C)cc21 [compound 694] | 6.70 |  |  |  | 66 µL/min/mg | 82 µL/min/mg | pIC50 [1, 7]: 7.13; pIC50 [2, 8]: 7.15; IC50 (CYP2D6; CYP2D6 inhibition): 0.3 µM
14 | CO[C@H](C)C(=O)N[C@@H](Cc1ccc2c(c1)OCO2)[C@H](O)CN[C@H]1CC2(CCC2)Oc2c1cc(CC(C)(C)C)nc2N(C)C [compound 444] | 5.12 | 662 µL/min/mg | 399 µL/min/mg |  |  |  | pIC50 [1, 9]: 6.53; pIC50 [2, 10]: 6.11; pIC50 (CYP2D6; [11]): 5.03
15 | CO[C@H](C)C(=O)N[C@@H](Cc1ccc2c(c1)OCO2)[C@H](O)CN[C@@H]1c2cc(CC(C)(C)C)cnc2OC2(CCC2)[C@H]1F [compound 539] | 7.00 | 161 µL/min/mg | 61 µL/min/mg | 6.5 µM |  |  | pIC50 [1, 5]: 5.32; pIC50 [2, 6]: 6.83
16 | CO[C@H](C)C(=O)N[C@@H](Cc1ccc2c(c1)OCO2)[C@H](O)CN[C@H]1CC2(CCC2)Oc2ncc([C@H]3CC3(C)C)cc21 [compound 580] | 7.00 |  |  |  | 186 µL/min/mg | 42 µL/min/mg | pIC50 [1, 13]: 6.45; pIC50 [2, 14]: 6.11; pIC50 (CYP2D6; 2D6 IC50, CYP2D6 inhibition): 5.36
17 | CC(C)(C)Cc1cnc2c(c1)[C@@H](NC[C@@H](O)[C@H](Cc1ccc3c(c1)OCO3)NC(=O)CC1CCS(=O)(=O)C1)CC1(CCC1)O2 (some centres unmarked) [compound 778] | 7.00 | 141 µL/min/mg | 62 µL/min/mg | 8.5 µM |  |  | IC50 [1, 5]: 0.048 µM; IC50 [2, 12]: 0.05 µM
18 | CO[C@H](C)C(=O)N[C@@H](Cc1cccc(F)c1)[C@H](O)CN[C@H]1CC2(CCC2)Oc2c(-c3ccncc3)cc(CC(C)(C)O)cc21 [compound 567] | 7.00 | 120 µL/min/mg | 67 µL/min/mg | 2.2 µM |  |  | pIC50 [1, 5]: 7.41; pIC50 [2, 6]: 8.05
19 | CCCc1cnc2c(c1)[C@@H](NC[C@H](O)[C@@H](Cc1cc(F)cc(-c3nccs3)c1)NC(=O)COC)CC1(CCC1)O2 [compound 833] | 6.52 | 189 µL/min/mg | 219 µL/min/mg | 0.9 µM |  |  | IC50 [2, 12]: 2.28 µM
20 | CO[C@H](C)C(=O)N[C@H](Cc1cc(F)cc(-c2nccs2)c1)[C@@H](O)CN[C@H]1CC2(CCC2)Oc2ncc(Br)cc21 [compound 821] | 6.52 | 243 µL/min/mg | 162 µL/min/mg | 0.5 µM |  |  | IC50 [2, 12]: 0.558 µM
21 | COCC(=O)N[C@@H](Cc1ccc(F)cc1)[C@H](O)CN[C@H]1CC2(CCNC2)Oc2cnc(CC(C)(C)C)cc21 (some centres unmarked) [compound 696] | 5.54 |  |  |  | 44 µL/min/mg | 32 µL/min/mg | pIC50 [2, 8]: 6.11; IC50 (CYP2D6; CYP2D6 inhibition): ≥ 27 µM
22 | CC(C)Cc1cnc2c(c1)[C@@H](NC[C@H](O)[C@@H](Cc1cccc(-c3nccs3)c1)NC(=O)[C@@H]1CCCO1)CC1(CCC1)O2 [compound 796] | 6.70 | 58 µL/min/mg | 126 µL/min/mg | 0.6 µM |  |  | IC50 [2, 12]: 0.663 µM
